The assay has as its target T1, σ receptor (Rattus norvegicus, UniProt Q9R0C9).
T1 construct: The brains are thawed, the cerebella removed and the remaining tissue weighed; tissue Rockland (Gilbertsville, Pa.); host or cells: rat brain without cerebellum, crude particulate membranes
As to the kind of experiment: σ receptor radio-receptor assay, inhibition of radiolabeled pentazocine binding. Conditions: for IC50: Table IV, individual compounds, R1 varied.

The results in this text go back to US5874443A, “Isoquinoline derivatives and isoquinoline combinatorial libraries” (Trega Biosciences, Inc., priority 1996, dated 1999).

“Also recorded” adds a separate entry of the source.

T1 sequence (Q9R0C9 whole entry): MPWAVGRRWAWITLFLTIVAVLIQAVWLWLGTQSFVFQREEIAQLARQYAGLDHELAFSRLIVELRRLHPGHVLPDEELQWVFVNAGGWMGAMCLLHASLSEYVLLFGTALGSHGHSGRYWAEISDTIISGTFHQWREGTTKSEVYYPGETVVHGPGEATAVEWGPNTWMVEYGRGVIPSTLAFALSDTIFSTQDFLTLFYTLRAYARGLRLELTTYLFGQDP

Usually IC50 stands for the midpoint of a concentration-inhibition curve. In turn, `COc1ccc(Cc2ccc(C3C(C(=O)NCC45CC6CC(CC(C6)C4)C5)c4ccccc4C(=O)N3CCCCCCC(N)=O)o2)cc1` (centres unmarked) [Compound 1] had an IC50 of 56 nM. The “activity in the σ receptor assay (iterative approach)” value (in words, Example 44) was “most active”.
In turn, `COc1ccc(Cc2ccc(C3C(C(=O)NCC45CC6CC(CC(C6)C4)C5)c4ccccc4C(=O)N3C[C@H]3CC[C@H](C(N)=O)CC3)o2)cc1` (some centres unmarked) [Pool 2] yielded an IC50 of 68 nM.
On to `COc1ccc(Cc2ccc(C3C(C(=O)NCC45CC6CC(CC(C6)C4)C5)c4ccccc4C(=O)N3CCCCC(N)=O)o2)cc1` (centres unmarked) [Pool 9], for which the IC50 amounted to 231 nM.
On the same count and under the same terms, the same measure for `COc1ccc(Cc2ccc(C3C(C(=O)NCC45CC6CC(CC(C6)C4)C5)c4ccccc4C(=O)N3CCC(N)=O)o2)cc1` (centres unmarked) [Pool 10]: 355 nM.
On the same count and under the same terms, with `COc1ccc(Cc2ccc(C3C(C(=O)NCC45CC6CC(CC(C6)C4)C5)c4ccccc4C(=O)N3CCCC[C@H](N)C(N)=O)o2)cc1` (some centres unmarked) [Pool 8] the figure was 150 nM; with `COc1ccc(Cc2ccc(C3C(C(=O)NCC45CC6CC(CC(C6)C4)C5)c4ccccc4C(=O)N3C[C@H](N)C(N)=O)o2)cc1` (some centres unmarked) [Compound 3], 71 nM; with `COc1ccc(Cc2ccc(C3C(C(=O)NCC45CC6CC(CC(C6)C4)C5)c4ccccc4C(=O)N3CCOCCOCC(N)=O)o2)cc1` (centres unmarked) [Pool 5], 117 nM.
Regarding `COc1ccc(Cc2ccc(C3C(C(=O)NCC4CCCCC4)c4ccccc4C(=O)N3CCCCCCC(N)=O)o2)cc1` (centres unmarked), the “activity in the σ receptor screen (positional scan)” value (in words, Example 51) was “most active; also recorded: virtually equal activity”.
Consider `COc1ccc(Cc2ccc(C3C(C(=O)NCC45CC6CC(CC(C6)C4)C5)c4ccccc4C(=O)N3CC(N)=O)o2)cc1` (centres unmarked) [Pool 6], for which the half-maximal inhibitory concentration (IC50) was found to be 124 nM.
Consider `COc1ccc(Cc2ccc(C3C(C(=O)NCC45CC6CC(CC(C6)C4)C5)c4ccccc4C(=O)N3Cc3ccc(C(N)=O)cc3)o2)cc1` (centres unmarked) [Pool 7], for which the half-inhibitory concentration (IC50) worked out at 130 nM.
